Tests used:
RIPK2 [1] = molecular target: T1, RIPK2 (Homo sapiens, UniProt O43353); assay: Lipophilic ligand efficiency (LipE); details: LipE = pIC50 − ClogP
T1 construct: purchased Promega

RIPK1 = molecular target: T2, RIPK1 (Homo sapiens, UniProt Q13546); assay: RIPK1 inhibition rate at 1 µM; format: biochemical
T2 sequence (Q13546 1-671): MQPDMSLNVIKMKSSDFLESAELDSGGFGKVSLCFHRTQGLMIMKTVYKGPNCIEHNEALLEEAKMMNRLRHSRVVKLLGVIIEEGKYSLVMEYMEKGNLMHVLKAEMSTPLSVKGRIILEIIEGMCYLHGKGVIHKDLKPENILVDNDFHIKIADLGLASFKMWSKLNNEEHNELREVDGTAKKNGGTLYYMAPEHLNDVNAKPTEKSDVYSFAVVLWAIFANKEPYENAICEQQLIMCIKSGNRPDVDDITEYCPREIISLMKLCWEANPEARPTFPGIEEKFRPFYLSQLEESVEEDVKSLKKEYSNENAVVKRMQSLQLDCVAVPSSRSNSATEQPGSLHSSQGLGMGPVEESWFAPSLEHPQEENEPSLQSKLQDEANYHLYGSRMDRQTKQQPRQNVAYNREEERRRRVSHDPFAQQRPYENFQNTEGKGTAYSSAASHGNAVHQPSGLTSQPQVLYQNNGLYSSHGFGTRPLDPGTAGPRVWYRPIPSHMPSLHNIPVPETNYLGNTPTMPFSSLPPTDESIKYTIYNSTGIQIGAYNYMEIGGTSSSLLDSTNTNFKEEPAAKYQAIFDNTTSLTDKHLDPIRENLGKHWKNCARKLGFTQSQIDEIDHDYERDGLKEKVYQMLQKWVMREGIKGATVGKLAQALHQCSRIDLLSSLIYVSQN
Description: Table 4. Selectivity, ClogP and LipE of compound 14, 15, 21, 32, 36. | column: RIPK1 IR@1µM (%)

[2] = test system: MDP-induced TNF-α secretion in Raw264.7; assay: TNF-α secretion in MDP-induced Raw264.7 (ELISA); format: cell-based, mouse; details: Raw264.7, compounds 1 h then L18-MDP 20 µg/mL 24 h, series concentration
Description: Raw 264.7 was cultured in DMEM containing 10% (w/v) foetal bovine serum (FBS). Cell were seeded at a density of 1 × 10^5 cells/well in a 48 well plate overnight, then cells were treated with different concentrations of compounds for1h, following by stimulated with L18-MDP (20 µg/mL, Invivogen) for 24 h. The Cell supernatants were harvested for enzyme-linked immunosorbent assay (ELISA).
TNFα commercial ELISA kits (DAKEWE) were used to detect TNFα in cell culture supernatants according to the manufacturer’s instructions. The concentration of cytokines was determined using multiwell spectrophotometer (SpetraMAX PLUS, Molecular Devices).

RIPK2 [3] = molecular target: T1, RIPK2; assay: RIPK2 kinase inhibition assay (ADP-Glo); format: biochemical; details: mean ± SD from two separate experiments
Description: RIPK2 kinase activity was analysed using the ADP-Glo™ Assay Kit (RIPK2 Kinase Enzyme System, Promega, USA). Reactions were performed according to the instructions. Specific signal was calculated by subtracting values in the wells without protein and inhibitor from the values in the test wells.

AO oxidase = molecular target: T3, AO oxidase (Homo sapiens, UniProt Q06278); assay: AO oxidative metabolism in human liver cytosol; format: in vitro ADME; details: human liver cytosol incubation; inhibitors raloxifene and menadione
T3 construct: could undergo mono oxidative metabolism in the human liver cytosol incubation system; from tissue; host or cells: human liver cytosol
T3 sequence (Q06278 whole entry): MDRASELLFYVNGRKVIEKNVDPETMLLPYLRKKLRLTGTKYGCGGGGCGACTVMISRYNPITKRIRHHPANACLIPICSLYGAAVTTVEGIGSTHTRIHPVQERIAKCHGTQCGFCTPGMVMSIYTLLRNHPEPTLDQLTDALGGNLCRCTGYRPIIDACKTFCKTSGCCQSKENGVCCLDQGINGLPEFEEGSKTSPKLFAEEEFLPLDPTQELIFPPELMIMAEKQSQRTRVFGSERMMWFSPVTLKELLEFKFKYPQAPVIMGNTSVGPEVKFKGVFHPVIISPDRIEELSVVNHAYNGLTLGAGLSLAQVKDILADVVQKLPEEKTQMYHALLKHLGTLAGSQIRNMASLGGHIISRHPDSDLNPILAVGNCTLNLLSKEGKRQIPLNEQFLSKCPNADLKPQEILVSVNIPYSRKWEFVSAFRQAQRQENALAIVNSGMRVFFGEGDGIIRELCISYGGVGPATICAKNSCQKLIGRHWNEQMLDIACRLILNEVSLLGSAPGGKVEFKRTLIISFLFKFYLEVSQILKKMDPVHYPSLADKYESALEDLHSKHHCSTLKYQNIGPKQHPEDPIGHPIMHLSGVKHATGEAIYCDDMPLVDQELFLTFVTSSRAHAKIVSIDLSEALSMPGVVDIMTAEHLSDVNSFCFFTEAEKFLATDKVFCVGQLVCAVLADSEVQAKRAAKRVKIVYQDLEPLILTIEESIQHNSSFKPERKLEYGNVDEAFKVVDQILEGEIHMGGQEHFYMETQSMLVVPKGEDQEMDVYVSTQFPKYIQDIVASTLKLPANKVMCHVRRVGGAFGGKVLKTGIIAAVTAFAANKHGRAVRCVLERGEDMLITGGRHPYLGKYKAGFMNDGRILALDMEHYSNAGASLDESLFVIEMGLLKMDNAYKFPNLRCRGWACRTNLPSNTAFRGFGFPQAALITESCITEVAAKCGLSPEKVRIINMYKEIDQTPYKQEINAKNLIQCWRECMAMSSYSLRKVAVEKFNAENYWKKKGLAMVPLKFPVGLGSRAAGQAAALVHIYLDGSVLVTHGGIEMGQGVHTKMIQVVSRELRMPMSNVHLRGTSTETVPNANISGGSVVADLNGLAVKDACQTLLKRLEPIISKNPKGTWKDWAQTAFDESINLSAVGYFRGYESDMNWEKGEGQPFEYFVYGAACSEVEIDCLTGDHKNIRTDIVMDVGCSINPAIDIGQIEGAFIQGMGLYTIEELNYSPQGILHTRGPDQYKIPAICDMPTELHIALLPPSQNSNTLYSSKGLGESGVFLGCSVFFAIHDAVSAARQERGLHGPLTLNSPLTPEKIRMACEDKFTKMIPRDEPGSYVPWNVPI
Description: However, we have done experiment on AO oxidative metabolism of compound 14 and P5. Both compound 14 and P5 could undergo mono oxidative metabolism in the human liver cytosol incubation system.

T1 sequence (O43353 whole entry): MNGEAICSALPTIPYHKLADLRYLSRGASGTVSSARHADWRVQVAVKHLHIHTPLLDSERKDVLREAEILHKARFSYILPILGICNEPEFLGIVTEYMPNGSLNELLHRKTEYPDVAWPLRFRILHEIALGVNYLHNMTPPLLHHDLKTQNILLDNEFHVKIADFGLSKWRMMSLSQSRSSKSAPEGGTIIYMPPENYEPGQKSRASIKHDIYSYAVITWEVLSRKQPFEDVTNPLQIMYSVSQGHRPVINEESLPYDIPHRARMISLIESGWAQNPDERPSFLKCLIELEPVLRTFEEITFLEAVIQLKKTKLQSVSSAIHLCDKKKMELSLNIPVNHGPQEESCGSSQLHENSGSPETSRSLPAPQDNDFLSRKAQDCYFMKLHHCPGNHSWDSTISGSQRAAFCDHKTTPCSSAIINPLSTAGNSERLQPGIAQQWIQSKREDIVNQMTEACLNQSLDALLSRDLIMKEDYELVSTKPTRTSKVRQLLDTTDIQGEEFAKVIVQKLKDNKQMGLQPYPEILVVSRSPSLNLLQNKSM

Compound	LipE (RIPK2 [1])	RIPK1 IR@1µM (%) (RIPK1)	inhibition of MDP-induced TNF-α secretion [2]	IC50 (RIPK2 [3]) [nM]	AO oxidase substrate (AO oxidase)
c1cncc(-c2ccc3nccc(Nc4ccc5scnc5c4)c3c2)c1 [Compound 15, N-(6-(pyridin-3-yl)quinolin-4-yl)benzo[d]thiazol-5-amine]	4.27	<1	almost no inhibition	6 ± 1.5	
Cc1n[nH]cc1-c1ccc2nccc(Nc3ccc4scnc4c3)c2c1 [Compound 21, N-(6–(3-methyl-1H-pyrazol-4-yl)quinolin-4-yl)benzo[d]thiazol-5-amine]	4.99	<1		4.1 ± 0.9	
COc1cc(Nc2ccnc3ccc(-c4cccnc4)cc23)cc(OC)c1OC [Compound 32, 6-(Pyridin-3-yl)-N-(3,4,5-trimethoxyphenyl)quinolin-4-amine]	4.30	19		2.4 ± 0.2	
COc1cc(Nc2ccnc3ccc(-c4cnn(C)c4)cc23)cc(OC)c1OC [Compound 36, 6–(1-Methyl-1H-pyrazol-4-yl)-N-(3,4,5-trimethoxyphenyl)quinolin-4-amine]	3.67	<1		7.2 ± 2.6	
CC(C)(C)S(=O)(=O)c1cc2c(Nc3ccc4scnc4c3)ncnc2cc1OCCO [Compound P5, reference compound]	6.70			2.6 ± 1.2	metabolic substrates of AO oxidase
